Measurements published in patent US20140348819A1, “Methods of Treating Cancer” (Dana-Farber Cancer Institute, Inc., priority 2011, published 2014).

What was measured:
[1] = system: six V600E BRAF melanoma cell lines; assay: Screening of recombinant RTK ligands for ability to confer resistance to BRAFi (PLX4720) or MEKi (PD184352) (Table 4); assay type: cell-based, human; design: ability of recombinant RTK ligand to confer resistance / ability of recombinant RTK ligand to confer resistance (screening value): scale not given here
Summary of the method: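 Six V600E BRAF melanoma lines treated with PLX4720 or PD184352 after addition of 22 recombinant RTK ligands, scored for drug resistance. Activation of selected RTKs confirmed by western blotting and high-throughput tyrosine kinase phosphorylation profiling.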

[2] = system: pERK/pAKT; assay: High-throughput western analysis of pERK/pAKT re-activation by RTK ligands under BRAFi/MEKi; assay type: cell-based, human; conditions: under BRAFi (PLX4720); after 1 hour of cytokine treatment; six V600E BRAF melanoma cell lines

## PDGF-BB: RTK ligand of PDGFRB
[1]; A2058, PD184352 - 1 uM, ligand 0.4 ng/ml
  ability of recombinant RTK ligand to confer resistance: 1.07
[1]; A2058, PD184352 - 1 uM, ligand 1.6 ng/ml
  ability of recombinant RTK ligand to confer resistance: 0.98
[1]; A2058, PD184352 - 1 uM, ligand 6.25 ng/ml
  ability of recombinant RTK ligand to confer resistance: 1.10
[1]; A2058, PD184352 - 1 uM, ligand 25 ng/ml
  ability of recombinant RTK ligand to confer resistance: 1.09
[1]; A2058, PD184352 - 1 uM, ligand 100 ng/ml
  ability of recombinant RTK ligand to confer resistance: 1.02
[1]; A2058, PLX4720 - 2 uM, ligand 0.4 ng/ml
  ability of recombinant RTK ligand to confer resistance: 1.07
[1]; A2058, PLX4720 - 2 uM, ligand 1.6 ng/ml
  ability of recombinant RTK ligand to confer resistance: 0.98
[1]; A2058, PLX4720 - 2 uM, ligand 6.25 ng/ml
  ability of recombinant RTK ligand to confer resistance: 1.07
[1]; A2058, PLX4720 - 2 uM, ligand 25 ng/ml
  ability of recombinant RTK ligand to confer resistance: 1.12
[1]; A2058, PLX4720 - 2 uM, ligand 100 ng/ml
  ability of recombinant RTK ligand to confer resistance: 1.07
[1]; C32, PD184352 - 1 uM, ligand 0.4 ng/ml
  ability of recombinant RTK ligand to confer resistance: 1.06
[1]; C32, PD184352 - 1 uM, ligand 1.6 ng/ml
  ability of recombinant RTK ligand to confer resistance: 0.97
[1]; C32, PD184352 - 1 uM, ligand 6.25 ng/ml
  ability of recombinant RTK ligand to confer resistance: 1.08
[1]; C32, PD184352 - 1 uM, ligand 25 ng/ml
  ability of recombinant RTK ligand to confer resistance: 1.10
[1]; C32, PD184352 - 1 uM, ligand 100 ng/ml
  ability of recombinant RTK ligand to confer resistance: 0.96
[1]; C32, PLX4720 - 2 uM, ligand 0.4 ng/ml
  ability of recombinant RTK ligand to confer resistance: 0.96
[1]; C32, PLX4720 - 2 uM, ligand 1.6 ng/ml
  ability of recombinant RTK ligand to confer resistance: 0.97
[1]; C32, PLX4720 - 2 uM, ligand 6.25 ng/ml
  ability of recombinant RTK ligand to confer resistance: 1.04
[1]; C32, PLX4720 - 2 uM, ligand 25 ng/ml
  ability of recombinant RTK ligand to confer resistance: 0.97
[1]; C32, PLX4720 - 2 uM, ligand 100 ng/ml
  ability of recombinant RTK ligand to confer resistance: 0.89
[1]; Colo 829, PD184352 - 1 uM, ligand 0.4 ng/ml
  ability of recombinant RTK ligand to confer resistance: 1.04
[1]; Colo 829, PD184352 - 1 uM, ligand 1.6 ng/ml
  ability of recombinant RTK ligand to confer resistance: 1.06
[1]; Colo 829, PD184352 - 1 uM, ligand 6.25 ng/ml
  ability of recombinant RTK ligand to confer resistance: 1.10
[1]; Colo 829, PD184352 - 1 uM, ligand 25 ng/ml
  ability of recombinant RTK ligand to confer resistance: 1.09
[1]; Colo 829, PD184352 - 1 uM, ligand 100 ng/ml
  ability of recombinant RTK ligand to confer resistance: 0.98
[1]; Colo 829, PLX4720 - 2 uM, ligand 0.4 ng/ml
  ability of recombinant RTK ligand to confer resistance: 1.01
[1]; Colo 829, PLX4720 - 2 uM, ligand 1.6 ng/ml
  ability of recombinant RTK ligand to confer resistance: 1.03
[1]; Colo 829, PLX4720 - 2 uM, ligand 6.25 ng/ml
  ability of recombinant RTK ligand to confer resistance: 1.06
[1]; Colo 829, PLX4720 - 2 uM, ligand 25 ng/ml
  ability of recombinant RTK ligand to confer resistance: 1.06
[1]; Colo 829, PLX4720 - 2 uM, ligand 100 ng/ml
  ability of recombinant RTK ligand to confer resistance: 1.01
[1]; G-361, PD184352 - 1 uM, ligand 0.4 ng/ml
  ability of recombinant RTK ligand to confer resistance: 1.00
[1]; G-361, PD184352 - 1 uM, ligand 1.6 ng/ml
  ability of recombinant RTK ligand to confer resistance: 0.89
[1]; G-361, PD184352 - 1 uM, ligand 6.25 ng/ml
  ability of recombinant RTK ligand to confer resistance: 0.99
[1]; G-361, PD184352 - 1 uM, ligand 25 ng/ml
  ability of recombinant RTK ligand to confer resistance: 0.98
[1]; G-361, PD184352 - 1 uM, ligand 100 ng/ml
  ability of recombinant RTK ligand to confer resistance: 0.96
[1]; G-361, PLX4720 - 2 uM, ligand 0.4 ng/ml
  ability of recombinant RTK ligand to confer resistance: 0.93
[1]; G-361, PLX4720 - 2 uM, ligand 1.6 ng/ml
  ability of recombinant RTK ligand to confer resistance: 0.90
[1]; G-361, PLX4720 - 2 uM, ligand 6.25 ng/ml
  ability of recombinant RTK ligand to confer resistance: 0.98
[1]; G-361, PLX4720 - 2 uM, ligand 25 ng/ml
  ability of recombinant RTK ligand to confer resistance: 1.00
[1]; G-361, PLX4720 - 2 uM, ligand 100 ng/ml
  ability of recombinant RTK ligand to confer resistance: 1.00
[1]; SK-MEL-5, PD184352 - 1 uM, ligand 0.4 ng/ml
  ability of recombinant RTK ligand to confer resistance: 1.03
[1]; SK-MEL-5, PD184352 - 1 uM, ligand 1.6 ng/ml
  ability of recombinant RTK ligand to confer resistance: 1.08
[1]; SK-MEL-5, PD184352 - 1 uM, ligand 6.25 ng/ml
  ability of recombinant RTK ligand to confer resistance: 1.04
[1]; SK-MEL-5, PD184352 - 1 uM, ligand 25 ng/ml
  ability of recombinant RTK ligand to confer resistance: 1.15
[1]; SK-MEL-5, PD184352 - 1 uM, ligand 100 ng/ml
  ability of recombinant RTK ligand to confer resistance: 1.16
[1]; SK-MEL-5, PLX4720 - 2 uM, ligand 0.4 ng/ml
  ability of recombinant RTK ligand to confer resistance: 0.87
[1]; SK-MEL-5, PLX4720 - 2 uM, ligand 1.6 ng/ml
  ability of recombinant RTK ligand to confer resistance: 0.98
[1]; SK-MEL-5, PLX4720 - 2 uM, ligand 6.25 ng/ml
  ability of recombinant RTK ligand to confer resistance: 1.02
[1]; SK-MEL-5, PLX4720 - 2 uM, ligand 25 ng/ml
  ability of recombinant RTK ligand to confer resistance: 1.16
[1]; SK-MEL-5, PLX4720 - 2 uM, ligand 100 ng/ml
  ability of recombinant RTK ligand to confer resistance: 1.31
[1]; SK-MEL-28, PD184352 - 1 uM, ligand 0.4 ng/ml
  ability of recombinant RTK ligand to confer resistance: 1.10
[1]; SK-MEL-28, PD184352 - 1 uM, ligand 1.6 ng/ml
  ability of recombinant RTK ligand to confer resistance: 1.02
[1]; SK-MEL-28, PD184352 - 1 uM, ligand 6.25 ng/ml
  ability of recombinant RTK ligand to confer resistance: 1.05
[1]; SK-MEL-28, PD184352 - 1 uM, ligand 25 ng/ml
  ability of recombinant RTK ligand to confer resistance: 0.99
[1]; SK-MEL-28, PD184352 - 1 uM, ligand 100 ng/ml
  ability of recombinant RTK ligand to confer resistance: 1.03
[1]; SK-MEL-28, PLX4720 - 2 uM, ligand 0.4 ng/ml
  ability of recombinant RTK ligand to confer resistance: 1.03
[1]; SK-MEL-28, PLX4720 - 2 uM, ligand 1.6 ng/ml
  ability of recombinant RTK ligand to confer resistance: 1.10
[1]; SK-MEL-28, PLX4720 - 2 uM, ligand 6.25 ng/ml
  ability of recombinant RTK ligand to confer resistance: 1.16
[1]; SK-MEL-28, PLX4720 - 2 uM, ligand 25 ng/ml
  ability of recombinant RTK ligand to confer resistance: 10.5
[1]; SK-MEL-28, PLX4720 - 2 uM, ligand 100 ng/ml
  ability of recombinant RTK ligand to confer resistance: 1.13
[1]; six V600E BRAF melanoma cell lines, BRAFi (PLX4720) or MEKi (PD184352)
  ability of RTK ligand to confer primary resistance: not shown to induce primary resistance
[2]
  re-activation of pERK/pAKT: reactivate only ERK
